Consider 7 compounds from ChEMBL document CHEMBL6127038, “How many organic small molecules might be used to treat COVID-19? From natural products to synthetic agents” (Eur J Med Chem, 2024).

In assay [1] the test system is SARS-CoV-2. As to the kind of experiment: Antiviral activity against SARS-CoV-2 infected in human Calu-3 cells assessed as reduction in viral growth measured after 48 hrs by qRT-PCR analysis. Conditions: Severe acute respiratory syndrome coronavirus 2, Calu-3, 48 h. It counts as functional, organism-based. On the technique in general: Quantitative PCR measures a nucleic acid by following its amplification.

The test system of assay [2] is SARS-CoV-2. As to the kind of experiment: Antiviral activity against SARS-CoV-2 infected in human HPAEpiC cells assessed as reduction in viral growth. It counts as functional, organism-based. Conditions: Severe acute respiratory syndrome coronavirus 2, HPAEpiC.
Assay [3] concerns the target Replicase polyprotein 1ab (Human coronavirus 229E, UniProt P0C6X1). Kind of assay: Inhibition of HCov-229E 3CLpro by FRET assay.
Assay [4] in a line: Inhibition of DENV-2 NS2B/NS3 protease. Set-up: species or system dengue virus type 2.
The next assay has as its target Procathepsin L (Homo sapiens, UniProt P07711). As to the kind of experiment: Inhibition of cathepsin L (unknown origin).
Assay [5] concerns SARS-CoV-2. As to the kind of experiment: Anti-viral activity against SARS-CoV-2 infected in human A549 cells expressing hACE2 by firefly reporter assay. Type of assay: functional, organism-based. To be noted: Severe acute respiratory syndrome coronavirus 2, A549. For orientation: A reporter such as luciferase makes a cellular process visible.
The target of assay [6] is T1, Replicase polyprotein 1ab (Severe acute respiratory syndrome coronavirus 2, UniProt P0DTD1). As to the kind of experiment: Inhibition of SARS-CoV-2 RdRp.
Assay [7] deals with T1, Replicase polyprotein 1ab. Kind of assay: Inhibition of SARS-CoV-2 3CLPro.
Assay [8] deals with SARS-CoV-2. As to the kind of experiment: Antiviral activity against wild type SARS-CoV-2 Omicron BA.5 infected in HEK293T cells assessed as reduction in viral replication measured after 48 hrs by Nano-Glo luciferase assay. Type of assay: functional, organism-based. Conditions: Severe acute respiratory syndrome coronavirus 2, HEK-293T.
The subject of assay [9] is SARS-CoV-2. As to the kind of experiment: Antiviral activity against wild type SARS-CoV-2 Omicron BA.1 infected in HEK293T cells assessed as reduction in viral replication measured after 48 hrs by Nano-Glo luciferase assay. It counts as functional, organism-based. Conditions: Severe acute respiratory syndrome coronavirus 2, Omicron BA.1, HEK-293T.

One may read the IC50 as the concentration that inhibits the measured activity by half. Usually EC50 stands for the midpoint of the concentration-response curve.

Replicase polyprotein 1ab (Human coronavirus 229E, UniProt P0C6X1), sequence (P0C6X1 2966-3267 limits assumed): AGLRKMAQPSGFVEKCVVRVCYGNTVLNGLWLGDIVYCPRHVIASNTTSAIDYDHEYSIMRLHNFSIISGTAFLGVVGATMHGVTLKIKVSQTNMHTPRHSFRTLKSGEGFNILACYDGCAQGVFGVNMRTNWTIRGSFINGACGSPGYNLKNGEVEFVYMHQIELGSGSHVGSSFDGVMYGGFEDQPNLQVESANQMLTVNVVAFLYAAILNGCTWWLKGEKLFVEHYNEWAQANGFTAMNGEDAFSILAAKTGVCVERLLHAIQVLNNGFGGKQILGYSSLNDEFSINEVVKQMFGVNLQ
Procathepsin L, sequence (P07711 whole entry): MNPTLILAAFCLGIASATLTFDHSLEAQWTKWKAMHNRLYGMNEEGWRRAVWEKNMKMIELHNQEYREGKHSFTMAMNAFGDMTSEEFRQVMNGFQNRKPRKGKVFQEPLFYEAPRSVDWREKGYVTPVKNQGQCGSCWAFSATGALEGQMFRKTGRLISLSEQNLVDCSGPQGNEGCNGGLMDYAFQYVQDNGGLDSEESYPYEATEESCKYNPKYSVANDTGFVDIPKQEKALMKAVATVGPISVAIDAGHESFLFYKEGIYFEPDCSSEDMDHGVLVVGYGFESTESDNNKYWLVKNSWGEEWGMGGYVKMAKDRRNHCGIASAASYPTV

Regarding `CCC(CC)COC(=O)[C@H](C)N[P@](=O)(OC[C@H]1O[C@@](c2noc(C(F)(F)F)n2)(c2ccc3c(N)ncnn23)[C@@H]2OC(C)(C)O[C@@H]21)Oc1ccccc1`, in the assay on SARS-CoV-2 [1], the half-maximal inhibitory concentration (IC50) was 19300 nM.

Take `C=C1C(=O)[C@@]23C(=O)[C@@H](O)[C@@H]4C(C)(C)C[C@@H]5C(=O)OCC54[C@@H]2CC[C@@H]1[C@H]3OC(=O)C1Cc2ccccc2C1` (stereo partly specified): the concentration giving a half-maximal response (EC50) in the assay with SARS-CoV-2 [2] worked out at 19 nM.

`C=C1NC(=O)[C@]2(C)CSC(=N2)c2csc(n2)[C@]2(C)CSC(=N2)[C@@H]([C@@H](C)CC)NC(=O)[C@@H](C)NC(=O)/C(=C\C(C)C)COC(=O)c2csc(n2)[C@H](C(C)C)N(C)C(=O)[C@H](COC)NC1=O`: the values for the IC50 in assay [3] and in [4] were 2390 nM and 560 nM, respectively.

For the compound `CCOC(=O)/C=C/[C@H](C[C@@H]1CCNC1=O)NC(=O)[C@H](Cc1ccccc1)NC(=O)[C@@H](N)Cc1ccccc1`, the figures for the concentration for half-maximal inhibition (IC50) against Procathepsin L and in the assay with SARS-CoV-2 [5] were 60 nM and 8.2 nM, respectively.

`CCCCC/C=C\C/C=C\CCCCCCCCOC(=O)[C@H](C)NP(=O)(OC[C@H]1O[C@@](C#N)(c2ccc3c(N)ncnn23)[C@H](O)[C@@H]1O)Oc1ccccc1` (stereo partly specified) gave a 50% effective concentration (EC50) in [6] of 440 nM.

For `CO[C@@H]1C[C@H](O[C@H]2C[C@](C)(CO)[C@@H]3CC[C@@]4(C)[C@@H]5CC[C@@H]6[C@H](CC(=O)[C@]7(C)C8=COC(N[C@H](C)C(C)C)=N[C@]8(C)[C@@H](O)[C@@H]8O[C@@]687)[C@@]5(C)CC[C@@H]4[C@@]3(C)[C@@H]2O)O[C@H](C)[C@H]1O`, the half-inhibitory concentration (IC50) in assay [3] worked out at 6.6 nM; in [7] it was 74 nM.

Consider `CCCCCCCCCC[C@@H]1CCC[C@]2(C=C(CO)[C@H]3CC(=O)C(C)=C[C@H]3O2)O1`, for which the concentration for a half-maximal effect (EC50) in the assay on SARS-CoV-2 [8] was determined as 160 nM; with SARS-CoV-2 [9], 100 nM.
